From article PMC5698418 (Nature Communications, 2017)
Where a name gives a salt, the structure may show the parent alone. Read-outs that look alike come from different tables or passages of the source.

Tested on: BDNF-induced nuclear Arc expression in primary cortical neurons
Test: Chemogenomic screen: high-content image-based assay of BDNF-induced nuclear Arc expression (96-well)
Format: cell-based, mouse
Description: To increase the throughput of our pharmacological screening for modulators of Arc, the above mentioned assay was adapted to cultures of mouse primary cortical neurons in 96-well plates.
All 319 compounds were initially tested at a final concentration of 16.7 µM with three biological replicates.
Screening of compounds in the chemogenomic library was carried out using DIV13 primary forebrain cortical neurons cultured on poly-L-lysine/laminin-coated 96-well plates (Ibidi USA, Madison, WI). Cells were seeded at a density of 30,000 cells per well and treated with the compound library and BDNF according to the experimental design presented in Fig. 3a. After experimental treatment, cells were processed for Arc and acetyl-H3K9 immunocytochemistry according to the protocol described above. Both antigens (Arc and acetyl-H3K9) were imaged using an IN Cell Analyzer 6000 imaging system and a ×40 objective. […] High-throughput quantification of nuclear Arc immunofluorescence signal was performed in a similar fashion than the low-throughput procedure described above but with the exception that acetyl-H3K9 was used as a nuclear mask to guide the automated quantification of nuclear Arc immunofluorescence signal.

[1] = chemogenomic (SMART) screen, BDNF-induced nuclear Arc expression, primary cortical neurons, BDNF control 19.5
[2] = nuclear Arc-positive cells relative to DMSO + BDNF control, negative values = decrease
[3] = BDNF-induced nuclear Arc expression, primary cortical neurons, chemogenomic screen
[4] = nuclear Arc-positive cells relative to DMSO control (BDNF), negative = decrease

Row | Structure (SMILES) | Percentage of cell with nuclear Arc immunostaining above 2σ threshold [1] [%] | Fold-change — Normalized to DMSO control (BDNF) [2] [fold] | Percentage of cell with nuclear Arc immunostaining above 2σ threshold [3] [%] | other results
1 | OC(CCN1CCCCC1)(c1ccccc1)C1CCCCC1 (centres unmarked) [Benzhexol hydrochloride] | 20.4 | 1.0 | – | –
2 | CN(C)CCCOc1nn(Cc2ccccc2)c2ccccc12 [Benzydamine] | 25.2 | 1.3 | – | –
3 | COc1ccc2cc3[n+](cc2c1OC)CCc1cc2c(cc1-3)OCO2 [Berberine] | – | – | 2.2 | –
4 | Cc1ccc(C23CNCC2C3)cc1 (centres unmarked) [Bicifadine] | – | – | 7.2 | –
5 | OC(CCN1CCCCC1)(c1ccccc1)C1CC2C=CC1C2 (centres unmarked) [Biperiden] | 13.3 | – | – | –
6 | CCN1CCN(c2cc(-c3ccc(F)cc3)c3c(n2)CCCCCC3)CC1 [Blonanserin] | – | – | 10.9 | –
7 | CC(C)(C)OC(=O)c1ncn2c1[C@@H]1CCCN1C(=O)c1c(Br)cccc1-2 [Bretazenil] | – | 2.0 | – | Percentage of cell with nuclear Arc immunostaining above 2σ threshold: 39.0%
8 | CCN[C@H]1CN(CCCOC)S(=O)(=O)c2sc(S(N)(=O)=O)cc21 [Brinzolamide] | 28.3 | 1.5 | – | –
9 | CCN(CC)CCNC(=O)c1cc(Br)c(N)cc1OC [Bromopride] | 27.7 | 1.4 | – | –
10 | O=C(CCCN1CCC(O)(c2ccc(Br)cc2)CC1)c1ccc(F)cc1 [Bromperidol] | 28.9 | 1.5 | – | –
11 | CC(NC(C)(C)C)C(=O)c1cccc(Cl)c1 (centres unmarked) [Bupropion] | – | – | 9.0 | –
12 | O=C1CC2(CCCC2)CC(=O)N1CCCCN1CCN(c2ncccn2)CC1 [Buspirone] | – | – | 10.3 | –
13 | C[C@H](NC[C@H](O)CP(=O)(O)Cc1ccccc1)c1ccc(Cl)c(Cl)c1 [CGP 55845] | – | 1.3 | – | Percentage of cell with nuclear Arc immunostaining above 2σ threshold: 24.6%
14 | O=C(c1ccc2c(c1)OCCO2)N1CCCCC1 [CX-546] | – | – | – | Percentage of cell with nuclear Arc immunostaining above 2σ threshold: 6.5%; Fold-change — Normalized to DMSO control (BDNF) [4]: -3.0 fold
15 | O=C1c2cc3c(cc2OC2CCCN12)OCCO3 (centres unmarked) [CX-614] | – | -1.5 | – | Percentage of cell with nuclear Arc immunostaining above 2σ threshold: 13.1%
16 | NC(=O)N1c2ccccc2C=Cc2ccccc21 [Carbamazepine] | – | – | 7.2 | –
17 | CCN(CC)CCOCCOC(=O)C1(c2ccccc2)CCCC1 [Carbetapentane] | 17.2 | – | – | –
18 | C[C@@](Cc1ccc(O)c(O)c1)(NN)C(=O)O [Carbidopa] | 36.1 | 1.9 | – | –
19 | O=C(O)C(O)C(O)C(=O)O.c1cnc2cc3c(cc2n1)[C@@H]1CNC[C@H]3C1 [Chantix] | – | – | 10.1 | Fold-change — Normalized to DMSO control (BDNF) [4]: -1.9 fold
20 | CN1C(=O)CCS(=O)(=O)C1c1ccc(Cl)cc1 (centres unmarked) [Chlormezanone] | – | 1.3 | – | Percentage of cell with nuclear Arc immunostaining above 2σ threshold: 25.9%
21 | CN(C)CCC(c1ccc(Cl)cc1)c1ccccn1 (centres unmarked) [Chlorphenamine] | 31.0 | 1.6 | – | –
22 | CN(C)CCCN1c2ccccc2Sc2ccc(Cl)cc21 [Chlorpromazine] | – | – | 0.0 | –
23 | CN(C)CC/C=C1/c2ccccc2Sc2ccc(Cl)cc21 [Chlorprothixene] | – | – | 1.0 | –
24 | CN(C)CCCC1(c2ccc(F)cc2)OCc2cc(C#N)ccc21 (centres unmarked) [Citalopram] | – | – | 6.1 | –
25 | COc1cc(N)c(Cl)cc1C(=O)NC1CCN(Cc2ccccc2)CC1 [Clebopride] | 25.8 | 1.3 | – | –
26 | C[N+]12CCC(CC1)C(OC(=O)C(O)(c1ccccc1)c1ccccc1)C2 (centres unmarked) [Clidinium bromide] | 24.4 | 1.2 | – | –
27 | Clc1cccc(Cl)c1N=C1NCCN1 [Clonidine] | 12.2 | – | – | –
28 | C#CCN(C)CCCOc1ccc(Cl)cc1Cl [Clorgyline] | – | – | 7.4 | Fold-change — Normalized to DMSO control (BDNF) [4]: -2.6 fold
